Data as given in patent publication US20080139573A1, “Treatment of resistant Schizophrenia and other CNS disorders” (Copharm, priority 2006, published 2008).
“Also recorded” adds a separate entry of the source.

Assays:
Format in all cases: in vivo, human
[1] = tested on: recurrent depression patient; assay: Case report: recurrent depression, switched to oral zuclopenthixol; conditions: for outcome under previous antidepressants: appropriate doses, sufficient duration, compliance ascertained
Text: Recurrent depressive patient is defined as a patient experiencing two or more successive major depressive episodes that are separated by at least two months of not experiencing adequate symptoms of depression to qualify for major depressive disorder (DSM-IV).
Subject diagnosed with recurrent depression for the first time. […] Compliance with treatment was ascertained. […] After 2 years, the patient had still not relapsed.

[2] = tested on: therapy resistant depression patient; assay: Case report: therapy resistant depression, switched to oral zuclopenthixol; conditions: for response to previous antidepressants: appropriate doses, sufficient duration
Text: Resistant depression patient is defined as a patient not responding to an appropriate pharmacological treatment.
Subject one diagnosed with chronic depression for the first time. […] They were then switched to oral zuclopenthixol. Before initiating oral zuclopenthixol treatment, the patient was considered as “markedly ill”.

[3] = tested on: therapy refractory schizophrenic patient; assay: Case report: therapy refractory schizophrenia, switched to oral zuclopenthixol
Text: Subject two diagnosed with therapy refractory schizophrenia for the first time The patient had been treated with appropriate doses and for sufficient duration with oral aripiprazole, oral loxapine and oral olanzapine at appropriate doses and for sufficient duration. Compliance with treatment was ascertained. […] The patient was then switched to oral zuclopenthixol.

[4] = tested on: therapy resistant schizophrenic patient; assay: Case reports: therapy resistant schizophrenic patients switched to oral zuclopenthixol; conditions: for response to previous antipsychotic agents: Case 1, oral, successive, appropriate doses and sufficient duration, compliance controlled
Text: Therapy resistant schizophrenic patient is a schizophrenic patient who has tried two successive antipsychotic agents for a period of 6 weeks at an appropriate dosage with no significant symptomatic relief of symptoms and who was compliant to pharmacological treatment. This definition comprises determining relief of symptoms by measurement on a clinical scale such as PANSS (positive and negative […] scale). The relief should correspond to a reduction of the PANSS scale of at least 20% after a period of 6 weeks treatment of an appropriate dosage. Lack of relief of symptoms should be assessed prospectively and should not be documented on the basis of historical information. Compliance to treatment should be documented through a third party such as nurse or care giver. Lack of compliance is often a reason for unsatisfactory outcome of schizophrenia therapy; if compliance is not documented the diagnosis of therapy resistant schizophrenia cannot be ascertained. Appropriate dosage is defined as an equivalent chlorpromazine of 400-700 mg per day.
Case 1. […] Compliance to treatment was ascertained. Before being given zuclopenthixol, the patient presented severe debilitating schizophrenic symptoms.
Case 2. Subject diagnosed with therapy resistant schizophrenia for the first time. […] Compliance with treatment was ascertained. The patient was then switched to oral zuclopenthixol. Before initiating zuclopenthixol treatment, the patient was considered as “markedly ill”.
Case 3. Subject diagnosed with therapy resistant schizophrenia for the first time. […] Compliance with treatment was ascertained. The patient was then switched to oral zuclopenthixol. Before initiating zuclopenthixol treatment, the patient was considered as “among the most extremely ill patients”. After 8 weeks of treatment with zuclopenthixol, the patient was evaluated as having “much improved”, as confirmed by C.G.I. and P.A.N.S.S.
Case 4. Subject diagnosed with therapy resistant schizophrenia for the first time. The patient had been treated with appropriate doses and for sufficient duration with the following antipsychotics: oral risperidone, oral aripiprazole, oral loxapine, and oral olanzapine. Compliance with treatment was ascertained. The patient was then switched to oral zuclopenthixol. Before initiating zuclopenthixol treatment, the patient was considered as “severely ill”. After 8 weeks of treatment with zuclopenthixol, the patient was evaluated as having “much improved”, as confirmed by C.G.I. and P.A.N.S.S.
Case 5. Subject diagnosed with therapy resistant schizophrenia for the first time. […] The patient was then switched to oral zuclopenthixol. […] After 8 weeks of treatment with zuclopenthixol, the patient was evaluated as having “much improved”, as confirmed by C.G.I. and P.A.N.S.S.

[5] = tested on: therapy resistant bipolar disorder patient; assay: Case reports: therapy resistant bipolar disorder, prescribed oral zuclopenthixol; conditions: for response to previous treatments: appropriate doses, sufficient duration, compliance ascertained
Text: Resistant bipolar disorder patient is defined as a patient not responding to an appropriate pharmacological treatment.
Case 1. Subject diagnosed with therapy resistant bipolar disorder I presented as having manic state. They had been diagnosed for the first time. […] Compliance with treatment was ascertained. They were then prescribed oral zuclopenthixol. Before initiating oral zuclopenthixol treatment, the patient was considered as “among the most extremely ill patients”. After 8 weeks of treatment with zuclopenthixol, the patient was evaluated as having “much improved”.
Case 2. Subject diagnosed with therapy resistant bipolar disorder 11 presented with depressive symptoms. They had been diagnosed for the first time. […] Compliance with treatment was ascertained. They were then prescribed oral zuclopenthixol. Before initiating oral zuclopenthixol treatment, the patient was considered as “markedly ill”.

[6] = tested on: naïve schizophrenic patient; assay: Case report: naïve schizophrenic patient given zuclopenthixol as first antipsychotic; conditions: 50 mg p. o. per day
Text: Naïve schizophrenic patient is a schizophrenic patient who had never been treated with an antipsychotic agent.
After a period of 5 years of treatment, the patient had still not relapsed.

[7] = person two, after 8 weeks of treatment
[8] = person one, after 8 weeks of treatment

CN(C)CCC=C1c2ccccc2CCc2ccccc21 [amytriptiline]
outcome under previous antidepressants [1]: regularly experiencing new episodes of depression | response to previous antidepressants [2]: without satisfactory response

O=C1CCc2ccc(OCCCCN3CCN(c4cccc(Cl)c4Cl)CC3)cc2N1 [aripiprazole]
response to previous antipsychotics ([3]; appropriate doses, sufficient duration, significant troublesome residual symptoms remained): significant relief of symptoms

CNCCC(Oc1ccc(C(F)(F)F)cc1)c1ccccc1 (stereo not shown) [fluoxetine]
outcome under previous antidepressants [1]: regularly experiencing new episodes of depression

O=C(CCCN1CCC(O)(c2ccc(Cl)cc2)CC1)c1ccc(F)cc1 [haloperidol]
response to previous antipsychotic agents [4]: did not respond

Nc1nnc(-c2cccc(Cl)c2Cl)c(N)n1 [lamotrigine]
response to previous treatments [5]: without satisfactory response

Fc1ccc([C@@H]2CCNC[C@H]2COc2ccc3c(c2)OCO3)cc1 [paroxetine]
outcome under previous antidepressants [1]: regularly experiencing new episodes of depression | response to previous antidepressants [2]: without satisfactory response

Cc1nc2n(c(=O)c1CCN1CCC(c3noc4cc(F)ccc34)CC1)CCCC2 [risperidone]
response to previous antipsychotic agents [4]: did not respond

CN[C@H]1CC[C@@H](c2ccc(Cl)c(Cl)c2)c2ccccc21 [sertraline]
response to previous treatments [5]: without satisfactory response | response to previous antidepressants [2]: without satisfactory response

Cl.Cl.OCCN1CCN(CC/C=C2/c3ccccc3Sc3ccc(Cl)cc32)CC1 [zuclopenthixol, 4-[(3Z)-3-(2-chloro-9H-thioxanthen-9-ylidene)propyl]-1-piperazineethanol dihydrochloride]
effect on schizophrenic symptoms ([4]; Case 1, patient, exclusively oral zuclopenthixol, soon after start of treatment): major relief of schizophrenic symptoms | evaluation of improvement, confirmed by C.G.I. and P.A.N.S.S. ([4]; Cases 2-5, oral, after 8 weeks of treatment, dihydrochloride): very much improved; also recorded: much improved | outcome of first antipsychotic treatment [6]: successful | period of treatment without relapse [6]: ≥ 5 years | period without relapse ([1]; person): ≥ 2 years | response to treatment ([1]; person): marked response | evaluation of improvement, confirmed by C.G.I. and P.A.N.S.S. [3, 7]: much improved | remission [3, 7]: achieve remission | evaluation of improvement ([5]; after 8 weeks of treatment, Case 1 bipolar I manic state, Case 2 depressive symptoms, dihydrochloride): much improved; also recorded: very much improved | evaluation of improvement, confirmed by C.G.I. [2, 8]: much improved | reduction of depression on the Hamilton Depression Scale [2, 8]: marked response
